Where two headings read alike, the source gives them in different places.
Legend:
[1] = test system: 3D7 P. falciparum parasites; assay: Growth inhibition assay (72 h, LDH activity); type: cell-based, Plasmodium falciparum
Procedure: (§1) Parasite growth assays with inhibitory compounds were performed as per[11] and are fully described in the Supplementary Information. […]
(§2) Growth inhibition assays. Synchronised ring-stage parasites (0.3-0.6% parasitemia, 2% haematocrit) were grown for 72 h in a serial-dilution of the compound under […]
(§3) and compound 4. Note that M-833 was first purchased from MolPort (MolPort -002-267-916) then made in-house at WEHI: the differences observed in EC50s across experiments are attributed to the different batches of M -833. For some experiments, 0, 0.25 or 2.5 mM of glucosamine (GlcN) was also added. Experiments were set up in technical duplicates or triplicates. Following a freeze -thaw cycle, lactate dehydrogenase (LDH) activity was assessed as an indicator of parasite growt h 5. 30 μL of parasite culture was incubated for 30 min in the dark with 75 μL Malstat mixture (0.1 M Tris pH 9.0, 20 g/L lactic acid, pH 7.5, 0.2% Triton-X100, 0.5 g/L acetylpyridine adenine dinucleotide (APAD, Sigma), 200 μg/mL nitroblue tetrazolium (NBT; Sigma), 1 μg/mL phenozine ethosulfate (PES; Sigma)). Absorbance was then measured at 650 nm, transformed using the formula below, plotted against the logarithm of the concentrations, and a non-linear regression (log(inhibitor) vs. response, variable slope) was calculated using GraphPad Prism to assess the half-inhibitory […]
(§4) Growth inhibition % = (1 − average(sample)− average(uRBC)) ∗ 100 […]
(§5) The DMSO samples were also used to assess growth of parasite in the presence of 0.25 and 2.5 mM GlcN (normalised by DMSO in 0 mM GlcN). […]

[2] = test system: PopD-D7 M-833 resistant clone (PfSTART1 N309K); assay: Growth inhibition assay (72 h, LDH activity); type: cell-based, Plasmodium falciparum
Procedure: The drug was then removed, and parasites were allowed to recover. Another cycle of drug treatment (3 μM M-833) was then resumed. The resistant lines were cloned out by limiting dilution (diluting the culture into a 96-well plate to achieve an average of ~0.3 parasites per well), prior to growth inhibition assays and genomic DNA (gDNA) extraction (DNeasy Blood and Tissue kit (Qiagen)[18].
as §1, §2, §3, §4, §5

`Cc1cc(Cl)c(S(=O)(=O)N2CCCC2)cc1OCC(=O)NC1CCCCC1` [M-833] gave an inhibition at 0.37037 µM ([1]; Plasmodium falciparum, 3D7, 3D7, 0.25 mM GlcN, conc 370.37 nM, read-out: Growth inhibition assay, NORMALISED) of 91.4%, an inhibition at 1.11111 µM ([1]; Plasmodium falciparum, 3D7, 3D7, 0.25 mM GlcN, conc 1111.11 nM, read-out: Growth inhibition assay, NORMALISED) of 95.5% and an inhibition at 3.33333 µM ([1]; Plasmodium falciparum, 3D7, 3D7, 0.25 mM GlcN, conc 3333.33 nM, read-out: Growth inhibition assay, NORMALISED) of 94.5%. It also gave an inhibition at 10 µM ([1]; Plasmodium falciparum, 3D7, 3D7, 0.25 mM GlcN, conc 10000 nM, read-out: Growth inhibition assay, NORMALISED) of 92.9%, an inhibition at 0.0390625 µM ([1]; Plasmodium falciparum, 3D7, 3D7 replicate 1, M-833 0.0390625 uM) of 6.15% and an inhibition at 0.078125 µM ([1]; Plasmodium falciparum, 3D7, 3D7 replicate 1, M-833 0.078125 uM) of 21.8%. It also gave an inhibition at 0.15625 µM ([1]; Plasmodium falciparum, 3D7, 3D7 replicate 1, M-833 0.15625 uM) of 47%, an inhibition at 0.3125 µM ([1]; Plasmodium falciparum, 3D7, 3D7 replicate 1, M-833 0.3125 uM) of 68.2% and an inhibition at 0.625 µM ([1]; Plasmodium falciparum, 3D7, 3D7 replicate 1, M-833 0.625 uM) of 84.4%. It also gave an inhibition at 1.25 µM ([1]; Plasmodium falciparum, 3D7, 3D7 replicate 1, M-833 1.25 uM) of 93.1%, an inhibition at 2.5 µM ([1]; Plasmodium falciparum, 3D7, 3D7 replicate 1, M-833 2.5 uM) of 95.8% and an inhibition at 5 µM ([1]; Plasmodium falciparum, 3D7, 3D7 replicate 1, M-833 5 uM) of 95.5%. It also gave an inhibition at 10 µM ([1]; Plasmodium falciparum, 3D7, 3D7 replicate 1, M-833 10 uM, read-out: % Inhibition) of 97.3%, an EC50 ([1]; Plasmodium falciparum, 3D7, 72 h, Fig 2B, 3D7, 72 h, n = 3, unit only in x-axis title, read-out: EC50 (95% confidence interval)) of 97.6 nM and an EC50 ([1]; Plasmodium falciparum, 3D7, 72 h, Fig 2D, 3D7, 72 h, n = 3, read-out: EC50 (95% confidence interval)) of 49.7 nM. For the same compound, the EC50 ([1]; Plasmodium falciparum, 3D7, 72 h, Supplementary Table 1, 3D7, 72 h, read-out: EC50) was 156 nM, the EC50 ([1]; Plasmodium falciparum, 3D7, Fig 1B, 3D7, 10 µM to 0.04 µM M-833, n = 3, unit only on x-axis label, read-out: EC50 (95% confidence interval)) was 170 nM and the EC50 ([1]; Plasmodium falciparum, 3D7, Fig 3C, 3D7, 0 mM GlcN, n = 4, unit on plot axis, read-out: EC50 M-833 (95% confidence interval)) was 157 nM. For the same compound, the EC50 ([1]; Plasmodium falciparum, 3D7, Fig 3C, 3D7, 0.25 mM GlcN, n = 4, unit on plot axis, read-out: EC50 M-833 (95% confidence interval)) was 158 nM, the EC50 ([1]; Plasmodium falciparum, 3D7, Fig 3C, 3D7, 2.5 mM GlcN, n = 4, unit on plot axis, read-out: EC50 M-833 (95% confidence interval)) was 118 nM and the EC50 ([1]; Plasmodium falciparum, 3D7, Fig 3F, 3D7, 0.25 mM GlcN, n = 3, read-out: EC50 M-833 (95% confidence interval)) was 54.8 nM. It also gave an EC50 ([1]; Plasmodium falciparum, 3D7, Fig 3F, 3D7, 2.5 mM GlcN, n = 3, read-out: EC50 M-833 (95% confidence interval)) of 37.3 nM, an EC50 ([1]; Plasmodium falciparum, 3D7, Fig 4A, 3D7 parasites, read-out: Pf 3D7 EC50 (SD)) of 1100 nM and an inhibition at 0.0390625 µM ([1]; Plasmodium falciparum, 3D7, M-833 0.0390625 uM, 3D7 replicate 1) of 1.91%. It also gave an inhibition at 0.0390625 µM ([1]; Plasmodium falciparum, 3D7, M-833 0.0390625 uM, 3D7 replicate 3) of -5.13%, an inhibition at 0.078125 µM ([1]; Plasmodium falciparum, 3D7, M-833 0.078125 uM, 3D7 replicate 1) of 30.8% and an inhibition at 0.078125 µM ([1]; Plasmodium falciparum, 3D7, M-833 0.078125 uM, 3D7 replicate 3) of -1.15%. It also gave an inhibition at 0.15625 µM ([1]; Plasmodium falciparum, 3D7, M-833 0.15625 uM, 3D7 replicate 1) of 57.1%, an inhibition at 0.15625 µM ([1]; Plasmodium falciparum, 3D7, M-833 0.15625 uM, 3D7 replicate 3) of 12.4% and an inhibition at 0.3125 µM ([1]; Plasmodium falciparum, 3D7, M-833 0.3125 uM, 3D7 replicate 1) of 82.6%. For the same compound, the inhibition at 0.3125 µM ([1]; Plasmodium falciparum, 3D7, M-833 0.3125 uM, 3D7 replicate 3) was 44.5%, the inhibition at 0.625 µM ([1]; Plasmodium falciparum, 3D7, M-833 0.625 uM, 3D7 replicate 1) was 87.3% and the inhibition at 0.625 µM ([1]; Plasmodium falciparum, 3D7, M-833 0.625 uM, 3D7 replicate 3) was 64.5%. The inhibition at 1.25 µM ([1]; Plasmodium falciparum, 3D7, M-833 1.25 uM, 3D7 replicate 1) was 91%, the inhibition at 1.25 µM ([1]; Plasmodium falciparum, 3D7, M-833 1.25 uM, 3D7 replicate 3) was 73.5% and the inhibition at 2.5 µM ([1]; Plasmodium falciparum, 3D7, M-833 2.5 uM, 3D7 replicate 1) was 91.8%. It also gave an inhibition at 2.5 µM ([1]; Plasmodium falciparum, 3D7, M-833 2.5 uM, 3D7 replicate 3) of 77.3%, an inhibition at 5 µM ([1]; Plasmodium falciparum, 3D7, M-833 5 uM, 3D7 replicate 1) of 91.3% and an inhibition at 5 µM ([1]; Plasmodium falciparum, 3D7, M-833 5 uM, 3D7 replicate 3) of 83.4%. The inhibition at 10 µM ([1]; Plasmodium falciparum, 3D7, M-833 10 uM, 3D7 replicate 1, read-out: % Inhibition) was 91.1%, the inhibition at 10 µM ([1]; Plasmodium falciparum, 3D7, M-833 10 uM, 3D7 replicate 3, read-out: % Inhibition) was 78% and the “effect of GlcN addition on EC50” value ([1]; control 3D7) was “did not change the EC50”. For the same compound, the “Normalised to DMSO” value ([2]; M-833 0.0390625 uM, PopD-D7 replicate 1) was 102.734, the “Normalised to DMSO” value ([2]; M-833 0.0390625 uM, PopD-D7 replicate 3) was 100.987 and the “Normalised to DMSO” value ([2]; M-833 0.078125 uM, PopD-D7 replicate 1) was 102.828. For the same compound, the “Normalised to DMSO” value ([2]; M-833 0.078125 uM, PopD-D7 replicate 3) was 101.481, the “Normalised to DMSO” value ([2]; M-833 0.15625 uM, PopD-D7 replicate 1) was 103.677 and the “Normalised to DMSO” value ([2]; M-833 0.15625 uM, PopD-D7 replicate 3) was 99.9013. The “Normalised to DMSO” value ([2]; M-833 0.3125 uM, PopD-D7 replicate 1) was 100.66, the “Normalised to DMSO” value ([2]; M-833 0.3125 uM, PopD-D7 replicate 3) was 100.592 and the “Normalised to DMSO” value ([2]; M-833 0.625 uM, PopD-D7 replicate 1) was 98.7744. For the same compound, the “Normalised to DMSO” value ([2]; M-833 0.625 uM, PopD-D7 replicate 3) was 98.815, the “Normalised to DMSO” value ([2]; M-833 1.25 uM, PopD-D7 replicate 1) was 99.0572 and the “Normalised to DMSO” value ([2]; M-833 1.25 uM, PopD-D7 replicate 3) was 95.26. The “Normalised to DMSO” value ([2]; M-833 2.5 uM, PopD-D7 replicate 1) was 95.8517, the “Normalised to DMSO” value ([2]; M-833 2.5 uM, PopD-D7 replicate 3) was 89.6313 and the “Normalised to DMSO” value ([2]; M-833 5 uM, PopD-D7 replicate 1) was 85.4808. For the same compound, the “Normalised to DMSO” value ([2]; M-833 5 uM, PopD-D7 replicate 3) was 79.5589.

— article PMC11189555, “Aryl amino acetamides prevent Plasmodium falciparum ring development via targeting the lipid-transfer protein PfSTART1” (Nature Communications, 2024)
